Measured values published in paper PMC5770598, “Small molecules targeted to the microtubule–Hec1 interaction inhibit cancer cell growth through microtubule stabilization” (Oncogene, 2017).

What was measured:
tubulin (dimeric) = biological target: T1, tubulin (dimeric); assay: SPR, steady-state Scatchard plot; type: binding; conditions: tubulin dimers immobilised on COOH5 chip; pH 7.4, 10 mM Hepes, 150 mM NaCl, 2 mM MgCl2, 0.05% P20, 2% DMSO
T1 construct: gene alpha-tubulin; unassembled alpha/beta-tubulin dimer, 3900 RU amine-coupled to COOH5 chip

[1] = biological target: T2, MTs (assembled microtubules); assay: SPR, steady-state Scatchard plot; type: binding; conditions: microtubules immobilised on COOH5 chip; pH 7.4, 10 mM Hepes, 150 mM NaCl, 2 mM MgCl2, 0.05% P20, 2% DMSO; error printed as ±0.1
T2 construct: gene alpha-tubulin; assembled microtubules (polymer of alpha/beta-tubulin dimers), 6050 RU amine-coupled to COOH5 chip

## O=C(/C=C/c1cn(CC(O)CN2CCCCC2)c2ccccc12)c1ccc(Br)cc1 (centres unmarked) [SM15]
Tubulin (dimeric)
  Kd: 1800 ± 400 nM
[1]
  Kd: 940 ± 130 nM
